Structures can show the parent of a compound that is named as a salt.
Assays:
[1] = test system: thrombin-induced platelet aggregation; test: Inhibitory effect on thrombin-induced platelet aggregation in vitro, Table 2; assay type: cell-based, human (healthy person)
Protocol: Blood was drawn from the cubital vein of a healthy person with a care taken to avoid congestion. […] 0.1 ml of a solution of 5'-GMP sodium salt in each of the concentrations shown in Table 1 below was added to 0.7 ml of PRP, and then each of the various platelet aggregation inducing agents shown in Table 1 was added. Changes in absorbance were measured by an aggregometer (made by Evans Company), and the rate of platelet aggregation inhibition was calculated from the following equation.
The same experiment as in (1) above was carried out except that […] of thrombin was used as a platelet aggregation inducing agent.

platelet aggregation [2] = conditions: cited from earlier work
[3] = test system: thrombin-induced platelet aggregation; test: Thrombin-induced platelet aggregation (inventors' test of 5'-GDP); assay type: cell-based; conditions: tests conducted by the present inventors
[4] = test system: 5'-ADP-induced platelet aggregation; conditions: at high concentrations; cited from earlier work
[5] = test system: platelet aggregation induced by collagen; test: Inhibition of collagen-induced platelet aggregation in vitro (method of Born, human PRP, aggregometer); assay type: cell-based, human (healthy person); conditions: collagen 5.5 γ/ml, read-out: Rate of inhibition (%)
Protocol: (§1) (1) Inhibitory effect of GMP on platelet aggregation induced by various platelet aggregation inducing substances:
(§2) The inhibitory effect was measured by the method of Born (J. Physiol., vol. 168, p. 178, 1963).
(§3) Blood was drawn from the cubital vein of a healthy person with a care taken to avoid congestion. One part by volume of a 3.8% sodium citrate solution was added to 9 parts by volume of the blood, and the mixture was centrifuged at 1,000 rpm for 10 minutes at room temperature to obtain platelet-rich plasma (PRP). 0.1 ml of a solution of 5'-GMP sodium salt in each of the concentrations shown in Table 1 below was added to 0.7 ml of PRP, and then each of the various platelet aggregation inducing agents shown in Table 1 was added. Changes in absorbance were measured by an aggregometer (made by Evans Company), and the rate of platelet aggregation inhibition was calculated from the following equation.

[6] = test system: platelet aggregation induced by thrombin; test: Inhibition of thrombin-induced platelet aggregation in vitro, Table 1 (method of Born, human PRP, aggregometer); assay type: cell-based, human (healthy person)
Protocol: as §1, §2, §3

[7] = test system: platelet aggregation (thrombin-induced); test: Inhibitory effect on platelet aggregation in humans in vivo (thrombin added to PRP); set-up: species or system human (healthy persons); conditions: for Rate of platelet aggregation inhibition (%): five healthy persons, oral one gram
Protocol: (4) Inhibitory effect on platelet aggregation in humans in vivo:
One gram of 5'-GMP (sodium salt) was administered orally to each of five healthy persons, and blood was drawn from them after a predetermined period of time. One part by volume of a 3.8% aqueous solution of sodium citrate was added to 9 parts by volume of the blood, and the mixture was centrifuged at room temperature for 10 minutes at 1,000 rpm to obtain platelet-rich plasma (PRP). 0.1 ml of a thrombin solution (0.75 u/ml) was added to 0.7 ml of PRP, and changes in absorbance were measured by an aggregometer (made by Evans Company).

platelet aggregation [8] = test: Relation between dose of GMP and aggregation inhibiting effect in rabbits in vivo; conditions: rabbit, one hour after administration
Protocol: (§4) 5'-GMP sodium salt was administered to rabbits intravenously in a dose of 50 mg/kg or orally in a dose of 1 g/kg. After a predetermined period of time (30 seconds to 4 minutes in the case of intravenous injection, and 1 to 5 hours in oral administration), blood was drawn from the animals. One part by volume of a 3.8% solution of sodium citrate was added to 9 parts by volume of the blood, and the mixture was centrifuged at 1,000 rpm at room temperature for 10 minutes to obtain platelet-rich plasma (PRP). 0.1 ml of a thrombin solution (0.75 u/ml) was added to 0.7 ml of PRP, and then changes in absorbance were measured by an aggregometer (made by Evans Company).
(2) Relation between the dose of GMP and the aggregation inhibiting effect.
Using rabbits, the dose response of the platelet aggregation inhibiting activity of 5'-GMP (sodium salt) in vivo was examined. 5'-GMP (sodium salt) was orally administered to the rabbits, and blood was drawn from the animals one hour after the administration. PRP was prepared in the same way as in section (1) above. The degree of platelet aggregation inhibition was measured by an aggregometer.

[9] = test system: platelet aggregation induced by arachidonic acid; test: Inhibition of arachidonic acid-induced platelet aggregation in vitro (method of Born, human PRP, aggregometer); assay type: cell-based, human (healthy person); conditions: arachidonic acid 55.5 γ/ml, read-out: Rate of inhibition (%)
Protocol: as §1, §2, §3

[10] = test system: platelet aggregation induced by 5'-ADP; test: Inhibition of 5'-ADP-induced platelet aggregation in vitro (method of Born, human PRP, aggregometer); assay type: cell-based, human (healthy person); conditions: 5'-ADP 55.5 γ/ml, read-out: Rate of inhibition (%)
Protocol: as §1, §2, §3

[11] = test system: platelet aggregation induced by norepinephrine; test: Inhibition of norepinephrine-induced platelet aggregation in vitro (method of Born, human PRP, aggregometer); assay type: cell-based, human (healthy person); conditions: norepinephrine 55.5 γ/ml, sample 1.00 mg/ml, read-out: Rate of inhibition (%)
Protocol: as §1, §2, §3

[12] = test system: platelet aggregation (thrombin-induced); test: Duration of the platelet aggregation inhibiting effect in vivo in rabbits (thrombin added to PRP); conditions: rabbit
Protocol: (3) Inhibitory effect on platelet aggregation in vivo:
(1) Duration of the aggregation inhibiting effect.
as §4

[13] = Acute toxicity in mice (Litchfield-Wilcoxon); set-up: species or system mouse (ddY-strain); conditions: mouse, in vivo, ddY mice, parentheses: 95% reliability limits
Protocol: The acute toxicity of the compound of formula (I) in accordance with this invention was examined.
The test compound (guanosine 5'-monophosphate sodium salt) was dissolved in physiological saline, and the solution was administered to ddY-strain mice (body weight 20 to 25 g) intravenously or orally.
The parenthesized figures show 95% reliability limits.

[14] = test system: platelet aggregation induced by various platelet aggregation inducing substances; test: Inhibition of platelet aggregation induced by various platelet aggregation inducing substances; assay type: cell-based, human (healthy person); conditions: Table 1
Protocol: as §1, §2, §3

Question: Which inhibition at 2000 µg/mL ([1]; Homo sapiens, Platelet, thrombin 0.25 μ/ml, compound 2.0 mg/ml, read-out: Inhibition rate (%)) does the source give for `Nc1nc2c(ncn2[C@@H]2O[C@H](CO)[C@@H](OP(=O)(O)O)[C@H]2O)c(=O)[nH]1` [3'-GMP (sodium salt), Guanosine 3'-monophosphate] here?
Answer: The inhibition at 2000 µg/mL was 87%.

Question: And the “Inhibition rate (%)” value ([1]; thrombin 0.25 μ/ml, compound 2.0 mg/ml)?
Answer: The value was 80%.

Question: With `Nc1ncnc2c1ncn2[C@@H]1O[C@H](COP(=O)(O)OP(=O)(O)O)[C@@H](O)[C@H]1O` [5'-ADP, adenosine 5'-diphosphate] as the compound, how does the “action on platelet aggregation” value (platelet aggregation [2]) read?
Answer: Its value is “promoting platelet aggregation”.

Question: With `Nc1ncnc2c1ncn2[C@@H]1O[C@H](COP(=O)(O)O)[C@@H](O)[C@H]1O` [5'-AMP, adenosine 5'-monophosphate] as the compound, how does the “action on platelet aggregation” value (platelet aggregation [2]) read?
Answer: The value was “weak action of inhibiting platelet aggregation”.

Question: Which “inhibitory action on thrombin-induced platelet aggregation” value [3] does the source give for `Nc1nc2c(ncn2[C@@H]2O[C@H](COP(=O)(O)OP(=O)(O)O)[C@@H](O)[C@H]2O)c(=O)[nH]1` [5'-GDP, guanosine 5'-diphosphate] here?
Answer: Its value is “no inhibitory action on thrombin-induced platelet aggregation”.

Question: And the “inhibitory action on 5'-ADP-induced platelet aggregation” value [4]?
Answer: Its value is “inhibitory action on 5'-ADP-induced platelet aggregation”.

Question: For `Nc1nc2c(ncn2[C@@H]2O[C@H](COP(=O)([O-])[O-])[C@@H](O)[C@H]2O)c(=O)[nH]1.[Na+].[Na+]` [5'-GMP (sodium salt), guanosine 5'-monophosphate sodium salt], which inhibition at 100 µg/mL (stock) ([5]; sample 0.10 mg/ml) is on record?
Answer: Its inhibition at 100 µg/mL (stock) is 10%.

Question: What about the inhibition at 1000 µg/mL (stock) ([5]; sample 1.00 mg/ml) of the same compound?
Answer: Its inhibition at 1000 µg/mL (stock) is 10%.

Question: What about the inhibition at 100 µg/mL ([6]; Homo sapiens, Platelet, read-out: Rate of inhibition (%)) of the same compound?
Answer: The inhibition at 100 µg/mL was 66%.

Question: And the inhibition at 1000 µg/mL (stock) ([6]; Homo sapiens, Platelet, thrombin 0.5 μ/ml, sample 1.0 mg/ml, read-out: Rate of inhibition (%))?
Answer: Its inhibition at 1000 µg/mL (stock) is 80%.

Question: What about the inhibition at 10000 µg/mL (stock) ([6]; Homo sapiens, Platelet, thrombin 0.5 μ/ml, sample 10.0 mg/ml, read-out: Rate of inhibition (%)) of the same compound?
Answer: The inhibition at 10000 µg/mL (stock) was 89%.

Question: What about the “Rate of platelet aggregation inhibition (%)” value ([7]; 1.5 hours) of the same compound?
Answer: Its value is 63%.

Question: And the “Rate of platelet aggregation inhibition (%)” value ([7]; 3 hours)?
Answer: Its value is 75%.

Question: What about the “Rate of platelet aggregation inhibition (%)” value ([7]; 4.5 hours) of the same compound?
Answer: Its value is 62%.

Question: And the “Rate of platelet aggregation inhibition (%)” value (platelet aggregation [8]; oral 0.5 g/kg)?
Answer: The value was 38.8%.

Question: And the “Rate of platelet aggregation inhibition (%)” value (platelet aggregation [8]; oral 1.0 g/kg)?
Answer: Its value is 61.0%.

Question: And the “Rate of platelet aggregation inhibition (%)” value (platelet aggregation [8]; oral 1.5 g/kg)?
Answer: The value was 75.2%.

Question: What about the “Rate of platelet aggregation inhibition (%)” value (platelet aggregation [8]; oral 2.0 g/kg) of the same compound?
Answer: The value was 80.3%.

Question: And the “Rate of platelet aggregation inhibition (%)” value (platelet aggregation [8]; oral 3.0 g/kg)?
Answer: The value was 100%.

Question: What about the inhibition at 10 µg/mL (stock) ([9]; sample 0.01 mg/ml) of the same compound?
Answer: Its inhibition at 10 µg/mL (stock) is 22%.

Question: And the inhibition at 1000 µg/mL (stock) ([9]; sample 1.00 mg/ml)?
Answer: Its inhibition at 1000 µg/mL (stock) is 40%.

Question: And the inhibition at 100 µg/mL (stock) ([10]; sample 0.10 mg/ml)?
Answer: The inhibition at 100 µg/mL (stock) was 3%.

Question: And the inhibition at 1000 µg/mL (stock) ([10]; sample 1.00 mg/ml)?
Answer: Its inhibition at 1000 µg/mL (stock) is 10%.

Question: And the inhibition at 500 µg/mL ([1]; Homo sapiens, Platelet, read-out: Inhibition rate (%), thrombin 0.25 μ/ml, compound 0.5 mg/ml)?
Answer: Its inhibition at 500 µg/mL is 75%.

Question: What about the inhibition at 1000 µg/mL ([1]; Homo sapiens, Platelet, thrombin 0.25 μ/ml, compound 1.0 mg/ml, read-out: Inhibition rate (%)) of the same compound?
Answer: Its inhibition at 1000 µg/mL is 81%.

Question: What about the inhibition at 1000 µg/mL (stock) [11] of the same compound?
Answer: Its inhibition at 1000 µg/mL (stock) is 8%.

Question: What about the “Rate of platelet aggregation inhibition (%)” value ([12]; iv 50 mg/kg, 30 seconds) of the same compound?
Answer: The value was 94%.

Question: What about the “Rate of platelet aggregation inhibition (%)” value ([12]; iv 50 mg/kg, 60 seconds) of the same compound?
Answer: The value was 93%.

Question: And the “Rate of platelet aggregation inhibition (%)” value ([12]; iv 50 mg/kg, 90 seconds)?
Answer: Its value is 59%.

Question: And the “Rate of platelet aggregation inhibition (%)” value ([12]; iv 50 mg/kg, 120 seconds)?
Answer: Its value is 60%.

Question: And the “Rate of platelet aggregation inhibition (%)” value ([12]; iv 50 mg/kg, 180 seconds)?
Answer: Its value is 62%.

Question: What about the “Rate of platelet aggregation inhibition (%)” value ([12]; iv 50 mg/kg, 240 seconds) of the same compound?
Answer: The value was 27%.

Question: And the “Rate of platelet aggregation inhibition (%)” value ([12]; oral 1 g/kg, 1 hour)?
Answer: The value was 95%.

Question: What about the “Rate of platelet aggregation inhibition (%)” value ([12]; oral 1 g/kg, 2 hours) of the same compound?
Answer: The value was 95%.

Question: What about the “Rate of platelet aggregation inhibition (%)” value ([12]; oral 1 g/kg, 3 hours) of the same compound?
Answer: The value was 93%.

Question: And the “Rate of platelet aggregation inhibition (%)” value ([12]; oral 1 g/kg, 4 hours)?
Answer: Its value is 93%.

Question: What about the “Rate of platelet aggregation inhibition (%)” value ([12]; oral 1 g/kg, 5 hours) of the same compound?
Answer: The value was 83%.

Question: What about the LD50 at 72 h ([13]; iv) of the same compound?
Answer: The LD50 at 72 h was 3350 mg/kg.

Question: What about the LD50 at 72 h ([13]; po) of the same compound?
Answer: Its LD50 at 72 h is 14800 mg/kg.

Question: For `Nc1nc2c(ncn2[C@@H]2O[C@H](COP(=O)(O)O)[C@@H](O)[C@H]2O)c(=O)[nH]1` [5'-GMP, Guanosine 5'-monophosphate], which “inhibitory effect on aggregation inducing agents” value [14] is on record?
Answer: Its value is “shows an inhibitory effect on all of the aggregation inducing agents tested”.

Question: What about the “effect against thrombin-induced aggregation” value ([6]; Table 1) of the same compound?
Answer: Its value is “especially effective against thrombin-induced aggregation”.

Question: And the duration of effect ([7]; humans, oral administration)?
Answer: Its duration of effect is ≥ 4.5 h.

Question: And the duration of effect ([12]; oral administration)?
Answer: The duration of effect was ≥ 5 h.

Question: What about the “inhibition of platelet aggregation” value ([12]; oral administration) of the same compound?
Answer: Its value is “marked inhibition of platelet aggregation”.

From US4621076A, “Pharmaceutical composition useful for inhibiting platelet aggregation” (Meito Sangyo Kabushiki Kaisha, priority 1982, dated 1986)
